Patent US20110319346A1, “ELECTROSTATIC PROTEIN/GLUCOSINOLATE COMPLEXES” (NESTEC S.A., priority 2009, published 2011)

Experiments:
[1] = Emulsifying properties: 10% oil-in-water emulsions, stability to creaming and flocculation; format: physicochemical; conditions: 10% oil-in-water emulsion, pH 4.0, without or with heat treatment
Method: Emulsifying properties of samples at pH 4.0 (prepared as described in example 1) were evaluated by preparing emulsions containing 10% (w/w) of “high oleic” sunflower oil (Oleifico SABO, Manno, Switzerland). Samples with SIN to BLG molar ratio 10 with or without heat treatment were diluted to 0.25 mM BLG and mixed with oil in a Pyrex® tube (D 25 mm, V 35 mL) to a final weight of 20 g. They were pre-homogenized using an Ultra Turrax® T25 equipped with a S25N-10G dispersing head (IKA-Werke, Staufen, Germany) rotating at 16,000 rpm for 1 minute. Homogenization of emulsions was completed using an ultrasonic processor (Hielscher UP400S, power 400 W, frequency 24 kHz) and a sonotrode (diameter 7 mm, approx. length 100 mm, titanium) at room temperature for 75 seconds and 75% amplitude of the ultrasound maximal power. This emulsification time was enough to disperse the oil in small droplets and to avoid excessive heating of the sample. […] Stability of emulsions to creaming and flocculation was followed over 26 days of storage at 4° C.

β-lactoglobulin (BLG) = target: T1, β-lactoglobulin (BLG) (Bos taurus, UniProt P02754); test: Binding curve of sinigrin to β-lactoglobulin (ultrafiltration, SEC of free SIN); parameters: species or system bovine; conditions: for number of maximum binding sites (nmax): SIN to BLG, acidic conditions (pH 4.0), 25° C.
T1 construct: The composition in the major whey protein fraction was 89.22% BLG; purchased Davisco Biopure, lot JE 001-3-922
T1 sequence (P02754 17-178): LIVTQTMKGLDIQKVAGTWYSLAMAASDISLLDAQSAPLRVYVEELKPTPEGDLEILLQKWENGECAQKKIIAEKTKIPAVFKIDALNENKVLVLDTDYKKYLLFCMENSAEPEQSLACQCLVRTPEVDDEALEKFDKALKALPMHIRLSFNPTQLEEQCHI
Method: β-Lactoglobulin (BLG) powder was dispersed in Millipore® water by stirring at room temperature for 1 hour. The protein powder was purchased from Davisco (Biopure, lot JE 001-3-922). The protein content was 93.5 g/100 g of powder, as determined by Kjeldahl analysis (N×6.38). The composition in the major whey protein fraction was 89.22% BLG, 6.91% […], 3.87% bovine serum albumin, as determined by reversed phase HPLC(RP-HPLC); 0.2% fat, 1.5% ash and 4.9% moisture, as specified by the supplier. The mineral composition was as follows: 0.87% Na^+, <0.004% K^+, <0.04% Cl^−, 0.019% Ca^2+, 0.053% P, 0.002% Mg^2+, as determined by atomic absorption spectroscopy.
Concentration of the BLG in the protein solution was 1 mM (1.84% w/w). It was stored overnight at 4° C. to allow hydration. The next day, the protein dispersion was filtered using a Stericup filtration system (Millipore®) with 0.22 μm GP Express Plus membrane. The filtered dispersion (pH 7.2) was either used directly for sample preparation, or it was previously acidified to pH 4.0 using 1M HCl. The amount of 1M HCl added in the latter case was about 1% of the total volume.
The glucosinolate solution was prepared on the day of the experiment by dissolving sinigrin (SIN) in Millipore® water to obtain a concentration 20 or 40 mM (0.83. or 1.66% w/w). Sinigrin hydrate (allyl glucosinolate) 99%, was purchased from Sigma (lot 1291054). For the experiments under acidic conditions, SIN solution was acidified to pH 4.0. The amount of 1M HCl added in the latter case was about 1% of the total volume. […]
After incubation, 2×1.5 mL of mixtures were centrifuged using Centrisart® I centrifugal ultrafiltration units with cellulose triacetate ultrafilters having molecular weight cut-off of 10 kDa (Sartorious, Germany) in a Sorvall RC 3C PLUS centrifuge with a swing bucket rotor (Thermo, Switzerland), for 30 min at 2900×g. Ultrafiltrates were collected, diluted 10 times in Millipore® water, and then analyzed by size exclusion HPLC (SEC) to determine the amount of free (unbound) SIN in each sample. […]

## C=CC/C(=N\OS(=O)(=O)[O-])S[C@@H]1O[C@H](CO)[C@@H](O)[C@H](O)[C@H]1O.O.[K+] [SIN, Sinigrin hydrate (allyl glucosinolate)]
[1]
  ability to produce a stable oil/water emulsion: not able to produce a stable oil/water emulsion
β-lactoglobulin (BLG); with heat treatment (85° C., 15 min)
  number of maximum binding sites (nmax): 8.71
β-lactoglobulin (BLG); without heat treatment
  number of maximum binding sites (nmax): 15.4
β-lactoglobulin (BLG); pH 4.0 compared to 7.2
  amount of bound SIN to BLG: much higher at pH 4.0 compared to 7.2
